Columns and labels:
H28 = assay: CellTiter-Glo 2.0 long-term cell viability assay; format: cell-based; settings: Homo sapiens, H28, BAP1 mutant
Experimental: (§1) The ability of Compound 1 to selectivity suppress mesothelioma cancer cell viability was assessed in a panel of cell lines after 7, 14 and 21 days of treatment with Compound 1. Cell viability was determined using CellTiter-Glo®2 luminescent cell viability assay.
(§2) Cell culture conditions. MSTO-211H, H2052, H2452, H28, H226 cell lines were obtained from ATCC (Manassas, VA) and were grown in media as recommended by the vendor. For long-term assays, cells were plated in 96-well plates containing. Compound 1. Cell lines were treated with a dose titration of Compound 1 starting at 2 μM top concentration.
(§3) Cellular assay—assessment of cell viability. Relative cell numbers were assessed by CellTiter-Glo® 2.0 luminescent cell viability assay (Promega Catalog #G9243) using a Perkin Elmer EnVision Alpha Reader (Model #2104, Waltham, MA). 50 μL of CellTiter-Glo® 2.0 reagent was added to each well containing 100 μL cell suspension and incubated for 30 min at RT with shaking at low speed. GraphPad Prism was used for curve fitting and GI50 determinations.

H2052 = assay: CellTiter-Glo 2.0 long-term cell viability assay; format: cell-based; settings: Homo sapiens, H2052, BAP1 wildtype
Experimental: as §1, §2, §3

H226 = assay: CellTiter-Glo 2.0 long-term cell viability assay; format: cell-based; settings: Homo sapiens, H226, BAP1 mutant
Experimental: as §1, §2, §3

MSTO-211H = assay: CellTiter-Glo 2.0 long-term cell viability assay; format: cell-based; settings: Homo sapiens, BAP1 wildtype
Experimental: as §1, §2, §3

H2452 = assay: CellTiter-Glo 2.0 long-term cell viability assay; format: cell-based; settings: Homo sapiens, H2452, BAP1 mutant
Experimental: as §1, §2, §3

[1] = system: pleural or peritoneal BAP1 loss mesothelioma; assay: human clinical phase 2 study, Compound 1 monotherapy, response by cancer cohort; format: in vivo; settings: intermediate cut-off date
Experimental: As part of a human clinical phase 2 study, subjects with pleural or peritoneal BAP1 loss mesothelioma were administered 350 mg/day Compound 1 for up to about 7.5 months (FIG. 1). Compound 1 was administered orally as a single agent (monotherapy). The cancers in each subject were known to have BAP1 mutations as determined by next generation sequencing (NGS) or local immunohistochemistry (IHC) testing prior to treatment. A complete response is characterized as disappearance of all lesions, a partial response is characterized as at least a 30% decrease in the sum of the longest diameter (LD) of target lesions, taking as reference the baseline sum LD; stable disease is characterized as neither sufficient shrinkage to qualify for partial response nor sufficient increase to qualify for progressive disease, taking as reference the smallest sum diameters; and progressive disease is characterized as at least a 20% increase in the sum of the LD of target lesions, taking as reference the smallest sum LD recorded since the treatment started or the appearance of one or more new lesions.

PXF 2328 = assay: pleural mesothelioma PDX model, tumor growth inhibition; format: in vivo; settings: PXF 2328 implanted in NSG mice, 75 mg/kg p.o. QD
Experimental: (§4) Compound 1 was evaluated in 6 patient-derived xenograft (PDX) models of pleural mesothelioma with BAP1 alterations (Table 3) implanted subcutaneously in immunodeficient mice (NSG mice in the case of tumor model PXF 2328, NMRI nu/nu mice for all other tumor models). Each experiment had two groups of generally five mice each enrolled at tumor volumes in the range of 53.9-198.9 mm^3. The first group was a vehicle control group, while the second group was treated with Compound 1, administered orally (p.o.) once daily (QD) at a dose level of 75 mg/kg. The duration of the experiments ranged between 30 and 65 days.
(§5) Antitumor efficacy of all groups was assessed using the vehicle control group as a reference. Tumor growth inhibition was determined by the comparison of tumor growth in the test groups with the vehicle control group and is expressed as the maximum tumor growth inhibition (TGI) value in percent. The statistical significance of differences between test and control groups was assessed using the non-parametric U-test.

[2] = system: pleural mesothelioma PDX models with BAP1 alterations; assay: panel of 6 PDX models of pleural mesothelioma with BAP1 alterations; format: in vivo, mice; settings: 75 mg/kg p.o. QD
Experimental: as §4, §5

PXF 2443 = assay: pleural mesothelioma PDX model, tumor growth inhibition; format: in vivo, NMRI nu/nu mice; settings: PXF 2443, 75 mg/kg p.o. QD; without a statistically significant reduction in tumor volume
Experimental: as §4, §5

PXF 680 = assay: as above; format: in vivo, NMRI nu/nu mice; settings: PXF 680, 75 mg/kg p.o. QD; statistically significant reduction in tumor volume vs vehicle (U-test)
Experimental: as §4, §5

PXF 1118 = assay: as above; format: in vivo, NMRI nu/nu mice; settings: PXF 1118, 75 mg/kg p.o. QD; without a statistically significant reduction in tumor volume
Experimental: as §4, §5

PXF 537 = assay: as above; format: in vivo, NMRI nu/nu mice; settings: PXF 537, 75 mg/kg p.o. QD; statistically significant reduction in tumor volume vs control
Experimental: as §4, §5

PXF 541 = assay: as above; format: in vivo, NMRI nu/nu mice; settings: PXF 541, 75 mg/kg p.o. QD; statistically significant reduction in tumor volume vs vehicle (U-test)
Experimental: as §4, §5

[3] = 350 mg/day oral monotherapy, efficacy evaluable patients N = 9

For `COC1CN([C@H]2CC[C@H]([C@@]3(C)Oc4c(Cl)cc(C(=O)NCc5c(SC)cc(C)[nH]c5=O)c(C)c4O3)CC2)C1` [Compound 1, (R)-7-chloro-2-((1r,4R)-4-(3-methoxyazetidin-1-yl)cyclohexyl)-2,4-dimethyl-N-((6-methyl-4-(methylthio)-2-oxo-1,2-dihydropyridin-3-yl)methyl)benzo[d][1,3]dioxole-5-carboxamide], the GI50 (H28; NCI-H28, 168 h, Day 7) was > 2 µM, the GI50 (H28; NCI-H28, 336 h, Day 14) was 0.234 µM and the GI50 (H28; NCI-H28, 504 h, Day 21) was 0.045 µM. For the same compound, the GI50 (H2052; NCI-H2052, 168 h, Day 7) was > 2 µM, the GI50 (H2052; NCI-H2052, 336 h, Day 14) was > 2 µM and the GI50 (H2052; NCI-H2052, 504 h, Day 21) was > 2 µM. The GI50 (H226; NCI-H226, 168 h, Day 7) was > 2 µM, the GI50 (H226; NCI-H226, 336 h, Day 14) was > 2 µM and the GI50 (H226; NCI-H226, 504 h, Day 21) was > 2 µM. The GI50 (MSTO-211H; 168 h, Day 7) was > 2 µM, the GI50 (MSTO-211H; 336 h, Day 14) was > 2 µM and the GI50 (MSTO-211H; 504 h, Day 21) was > 2 µM. For the same compound, the GI50 (H2452; NCI-H2452, 168 h, Day 7) was > 2 µM, the GI50 (H2452; NCI-H2452, 336 h, Day 14) was 0.006 µM and the GI50 (H2452; NCI-H2452, 504 h, Day 21) was 0.005 µM. For the same compound, the Complete response [1, 3] was 0 n (%), the Partial response [1, 3] was 2 (22.2) n (%) and the Progressive disease [1, 3] was 3 (33.3) n (%). The Stable disease [1, 3] was 4 (44.4) n (%), the “patients showing (partial) response and stable disease” value [1] was > 60% and the “effect on tumor growth” value (PXF 2328) was “inactive”. For the same compound, the “PDX models with a relevant TGI of greater than 50%” value [2] was 4 out of the 6, the “effect on tumor growth” value (PXF 2443) was “slowed growth” and the “maximum tumor growth inhibition (TGI)” value (PXF 680) was > 100%. For the same compound, the “effect on tumor growth” value (PXF 1118) was “slowed growth”, the “effect on tumor growth” value (PXF 537) was “almost stasis” and the “maximum tumor growth inhibition (TGI)” value (PXF 541) was > 100%.
